Measurements taken from paper PMC10394347 (Chinese Herbal Medicines, 2023).

Biological target: AKT (PH domain) (Homo sapiens, UniProt P31749)
Assay: intrinsic fluorescence quenching
Type: binding

AKT (PH domain), sequence (P31749 1-123): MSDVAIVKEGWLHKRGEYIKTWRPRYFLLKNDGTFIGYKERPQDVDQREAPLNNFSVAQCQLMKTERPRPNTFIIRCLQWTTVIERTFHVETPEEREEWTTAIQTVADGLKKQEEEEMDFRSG

Row | Kd [µM] | Compound
1 | 37.9 | O=C(O)/C=C/c1ccc(O[C@@H]2O[C@H](C(=O)O)[C@@H](O)[C@H](O)[C@H]2O)c(O)c1 [CA4G, caffeic-4′-O-glucuronide]
2 | 48.1 | COc1cc(/C=C/C(=O)O)ccc1O[C@@H]1O[C@H](C(=O)O)[C@@H](O)[C@H](O)[C@H]1O [FA4G, ferulic-4′-O-glucuronide]
3 | 185 | COc1cc(/C=C/C(=O)O)ccc1O [FA, ferulic acid]
4 | 183 | O=C(O)/C=C/c1ccc(O)c(O)c1 [CA, caffeic acid]
